Reference: patent US20030207812A1, “Cd45 inhibitors” (priority 2002, published 2003)
Where a SMILES comes first, the peptide text is derived from it. The star is where a group is joined. Phenanthrenequinone2carbonyl = O=C1C(=O)c2cc(C(=O)*)ccc2-c2ccccc21; 3Phenanthroyl(9,10-dioxo) = O=C1C(=O)c2ccc(C(=O)*)cc2-c2ccccc21

Key:
CD45 [1] = biological target: T1, CD45 (Homo sapiens, UniProt P08575); assay: Phosphatase assay using pNPP as substrate; format: biochemical
T1 construct: incubating the cytosolic portion of CD45 with the compounds and p-nitrophenyl phosphate (pNPP); purchased BIOMOL (Plymouth Meeting, Pa.)
T1 sequence (P08575 599-1306 limits assumed): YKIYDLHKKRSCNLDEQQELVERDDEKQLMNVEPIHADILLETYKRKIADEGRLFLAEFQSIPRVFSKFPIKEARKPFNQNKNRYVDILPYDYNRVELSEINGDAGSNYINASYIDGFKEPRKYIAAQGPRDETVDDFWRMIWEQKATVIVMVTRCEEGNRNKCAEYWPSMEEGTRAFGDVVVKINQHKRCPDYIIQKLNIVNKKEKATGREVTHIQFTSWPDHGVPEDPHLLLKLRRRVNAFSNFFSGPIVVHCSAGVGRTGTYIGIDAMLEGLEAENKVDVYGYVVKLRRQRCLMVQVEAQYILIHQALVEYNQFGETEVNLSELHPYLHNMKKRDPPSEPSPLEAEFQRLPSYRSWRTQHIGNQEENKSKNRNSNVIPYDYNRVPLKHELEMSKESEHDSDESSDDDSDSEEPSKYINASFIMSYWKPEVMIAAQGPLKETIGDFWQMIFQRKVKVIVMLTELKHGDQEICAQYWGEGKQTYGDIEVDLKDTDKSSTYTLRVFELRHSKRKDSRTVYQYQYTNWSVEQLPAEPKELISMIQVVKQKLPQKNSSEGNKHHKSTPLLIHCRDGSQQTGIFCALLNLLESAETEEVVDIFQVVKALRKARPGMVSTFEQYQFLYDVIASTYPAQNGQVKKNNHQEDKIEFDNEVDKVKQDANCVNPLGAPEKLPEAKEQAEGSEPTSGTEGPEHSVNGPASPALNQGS
Protocol: Phosphatase assay using pNPP as substrate:
CD45 enzyme was obtained from BIOMOL (Plymouth Meeting, Pa.). Phosphatase activity was assayed in a buffer containing final concentrations of 25 mM imidazole at pH 7.0, 50 mM NaCl, 2.5 mM ethylenediaminetetraacetic acid (“EDTA”), 5 mM dithiothreitol (“DTT”) and 10 μg/mL bovine serum albumin (“BSA”) using pNPP as a substrate.

CD45 [2] = biological target: T1, CD45; assay: Phosphatase assay using lck 10-mer as substrate; format: biochemical
Summary of the method: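 Enzyme incubated with lck phosphopeptide TEGQpYQPQP for 1.5 h at room temperature in 25 mM HEPES pH 7.2, 5 mM DTT, 10 μg/mL BSA, 5% DMSO final. Compounds tested from 30 to 0.01 μM. Released phosphate detected with malachite-type Green Reagent, absorbance at 620 nm after 30 min.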

in vitro = details: human
Protocol: Calcein-AM (Molecular Probes. Eugene, Oreg.) uptake, as a quantitative measure of cell viability, was used to evaluate the toxic effect of compounds on T cells.
The T-cell lymphoblasts were purified by separation over Lymphoprep, plated at 2×10^5/well in a round bottom 96-well plate containing RPMI with compound and incubated overnight at 37° C. in an incubator containing 5% CO2. The dilution scheme and culture media were the same as those used in the T-cell proliferation assay. After the incubation period, cells were washed with Dulbecco's phosphate-buffered saline (D-PBS) and incubated with 1 μM Calcein-AM for 30-45 mim in D-PBS as described in the technical sheet provided with The LIVE/DEAD Viability/Cytotoxicity Kit from Molecular Probes.

[3] = CD45 phosphatase, lck carboxy-terminal peptide TEGQpYQPQP substrate, pH 7.2, read-out: Ick IC50

| SMILES | IC50 (CD45 [1]; pH 7, read-out: pNPP IC50) [nM] | IC50 (CD45 [2]) [nM] | CC50 (in vitro) [nM] | IC50 (CD45 [1]) [nM] | IC50 (CD45 [2]; [3]) [nM] |
| --- | --- | --- | --- | --- | --- |
| NC(=O)CC[C@H](NC(=O)[C@H](CCC(=O)O)NC(=O)c1ccc2c(c1)-c1ccccc1C(=O)C2=O)C(=O)NCC(=O)N[C@@H](CCC(N)=O)C(=O)N1CCC[C@H]1C(=O)O [Example 31] ({3Phenanthroyl(9,10-dioxo)}-EQGQP-OH) | 600 | 2500 | > 30000 |  |  |
| NC(=O)CC[C@H](NC(=O)CNC(=O)[C@H](CCC(=O)O)NC(=O)CNC(=O)c1ccc2c(c1)-c1ccccc1C(=O)C2=O)C(=O)N1CCC[C@H]1C(=O)O [Example 32] ({3Phenanthroyl(9,10-dioxo)}-GEGQP-OH) | 700 | 2300 | > 30000 |  |  |
| NC(=O)CC[C@H](NC(=O)c1ccc2c(c1)-c1ccccc1C(=O)C2=O)C(=O)N[C@@H](CCC(=O)O)C(=O)NCC(=O)N[C@@H](CCC(N)=O)C(=O)N1CCC[C@H]1C(=O)O [Example 33] ({3Phenanthroyl(9,10-dioxo)}-QEGQP-OH) | 1100 | 2500 | > 30000 |  |  |
| NC(=O)CC[C@H](NC(=O)CNC(=O)c1ccc2c(c1)-c1ccccc1C(=O)C2=O)C(=O)NCC(=O)N[C@@H](CCC(=O)O)C(=O)N1CCC[C@H]1C(=O)O [Example 35] ({3Phenanthroyl(9,10-dioxo)}-GQGEP-OH) | 900 | 1400 | > 30000 |  |  |
| NC(=O)CC[C@H](NC(=O)[C@@H]1CCCN1C(=O)[C@H](CCC(N)=O)NC(=O)CNC(=O)c1ccc2c(c1)-c1ccccc1C(=O)C2=O)C(=O)NCC(=O)O [Example 36] ({3Phenanthroyl(9,10-dioxo)}-GQPQG-OH) |  |  | > 30000 | 1000 | 2200 |
| NC(=O)CC[C@H](NC(=O)c1ccc2c(c1)-c1ccccc1C(=O)C2=O)C(=O)N[C@@H](CCC(N)=O)C(=O)N1CCC[C@H]1C(=O)N[C@@H](CCC(N)=O)C(=O)NCC(=O)O [Example 37] ({3Phenanthroyl(9,10-dioxo)}-QQPQG-OH) |  |  | > 30000 | 1100 | 2100 |
| NC(=O)CC[C@H](NC(=O)CNC(=O)c1ccc2c(c1)-c1ccccc1C(=O)C2=O)C(=O)N1CCC[C@H]1C(=O)N[C@@H](CCC(=O)O)C(=O)NCC(=O)O [Example 39] ({3Phenanthroyl(9,10-dioxo)}-GQPEG-OH) |  |  | > 30000 | 700 | 2300 |
| O=C(O)CC[C@H](NC(=O)[C@@H]1CCCN1C(=O)CNC(=O)CNC(=O)c1ccc2c(c1)C(=O)C(=O)c1ccccc1-2)C(=O)NCC(=O)O [Example 40] (Phenanthrenequinone2carbonyl-GGPEG-OH) | 600 | 3900 | > 30000 |  |  |
| O=C(O)CC[C@H](NC(=O)c1ccc2c(c1)C(=O)C(=O)c1ccccc1-2)C(=O)NCC(=O)N1CCC[C@H]1C(=O)N[C@@H](CCC(=O)O)C(=O)NCC(=O)O [Example 41] (Phenanthrenequinone2carbonyl-EGPEG-OH) | 1400 | 3500 | > 30000 |  |  |
| N=C(N)NCCC[C@H](NC(=O)c1ccc2c(c1)C(=O)C(=O)c1ccccc1-2)C(=O)NCC(=O)N1CCC[C@H]1C(=O)N[C@@H](CCC(=O)O)C(=O)NCC(=O)O [Example 42] (Phenanthrenequinone2carbonyl-RGPEG-OH) | 900 | 3500 | > 30000 |  |  |
| O=C(O)CC[C@H](NC(=O)[C@@H]1CCCN1C(=O)[C@H](CCC(=O)O)NC(=O)CNC(=O)c1ccc2c(c1)C(=O)C(=O)c1ccccc1-2)C(=O)NCC(=O)O [Example 43] (Phenanthrenequinone2carbonyl-GEPEG-OH) | 1900 | 3800 | > 30000 |  |  |
| O=C(O)CC[C@H](NC(=O)c1ccc2c(c1)C(=O)C(=O)c1ccccc1-2)C(=O)N[C@@H](CCC(=O)O)C(=O)N1CCC[C@H]1C(=O)N[C@@H](CCC(=O)O)C(=O)NCC(=O)O [Example 44] (Phenanthrenequinone2carbonyl-EEPEG-OH) | 1100 | 3800 | > 30000 |  |  |
| N=C(N)NCCC[C@H](NC(=O)c1ccc2c(c1)C(=O)C(=O)c1ccccc1-2)C(=O)N[C@@H](CCC(=O)O)C(=O)N1CCC[C@H]1C(=O)N[C@@H](CCC(=O)O)C(=O)NCC(=O)O [Example 45] (Phenanthrenequinone2carbonyl-REPEG-OH) | 1400 | 3900 | > 30000 |  |  |
| N=C(N)NCCC[C@H](NC(=O)CNC(=O)c1ccc2c(c1)C(=O)C(=O)c1ccccc1-2)C(=O)N1CCC[C@H]1C(=O)N[C@@H](CCC(=O)O)C(=O)NCC(=O)O [Example 46] (Phenanthrenequinone2carbonyl-GRPEG-OH) | 1000 | 3800 | > 30000 |  |  |
| N=C(N)NCCC[C@H](NC(=O)[C@H](CCC(=O)O)NC(=O)c1ccc2c(c1)C(=O)C(=O)c1ccccc1-2)C(=O)N1CCC[C@H]1C(=O)N[C@@H](CCC(=O)O)C(=O)NCC(=O)O [Example 47] (Phenanthrenequinone2carbonyl-ERPEG-OH) | 700 | 4200 | > 30000 |  |  |
| N=C(N)NCCC[C@H](NC(=O)c1ccc2c(c1)C(=O)C(=O)c1ccccc1-2)C(=O)N[C@@H](CCCNC(=N)N)C(=O)N1CCC[C@H]1C(=O)N[C@@H](CCC(=O)O)C(=O)NCC(=O)O [Example 48] (Phenanthrenequinone2carbonyl-RRPEG-OH) | 600 | 5700 | > 30000 |  |  |
| N=C(N)NCCC[C@H](NC(=O)[C@@H]1CCCN1C(=O)CNC(=O)CNC(=O)c1ccc2c(c1)C(=O)C(=O)c1ccccc1-2)C(=O)NCC(=O)O [Example 49] (Phenanthrenequinone2carbonyl-GGPRG-OH) | 900 | 6100 | > 30000 |  |  |
| N=C(N)NCCC[C@H](NC(=O)[C@@H]1CCCN1C(=O)CNC(=O)[C@H](CCC(=O)O)NC(=O)c1ccc2c(c1)C(=O)C(=O)c1ccccc1-2)C(=O)NCC(=O)O [Example 50] (Phenanthrenequinone2carbonyl-EGPRG-OH) | 700 | 2800 | > 30000 |  |  |
| N=C(N)NCCC[C@H](NC(=O)c1ccc2c(c1)C(=O)C(=O)c1ccccc1-2)C(=O)NCC(=O)N1CCC[C@H]1C(=O)N[C@@H](CCCNC(=N)N)C(=O)NCC(=O)O [Example 51] (Phenanthrenequinone2carbonyl-RGPRG-OH) | 1100 | 4800 | > 30000 |  |  |
| N=C(N)NCCC[C@H](NC(=O)[C@@H]1CCCN1C(=O)[C@H](CCC(=O)O)NC(=O)CNC(=O)c1ccc2c(c1)C(=O)C(=O)c1ccccc1-2)C(=O)NCC(=O)O [Example 52] (Phenanthrenequinone2carbonyl-GEPRG-OH) | 800 | 3000 | > 30000 |  |  |
| N=C(N)NCCC[C@H](NC(=O)[C@@H]1CCCN1C(=O)[C@H](CCC(=O)O)NC(=O)[C@H](CCC(=O)O)NC(=O)c1ccc2c(c1)C(=O)C(=O)c1ccccc1-2)C(=O)NCC(=O)O [Example 53] (Phenanthrenequinone2carbonyl-EEPRG-OH) | 1000 | 3700 | > 30000 |  |  |
| N=C(N)NCCC[C@H](NC(=O)c1ccc2c(c1)C(=O)C(=O)c1ccccc1-2)C(=O)N[C@@H](CCC(=O)O)C(=O)N1CCC[C@H]1C(=O)N[C@@H](CCCNC(=N)N)C(=O)NCC(=O)O [Example 54] (Phenanthrenequinone2carbonyl-REPRG-OH) |  |  | > 30000 | 900 | 3900 |
| N=C(N)NCCC[C@H](NC(=O)[C@@H]1CCCN1C(=O)[C@H](CCCNC(=N)N)NC(=O)CNC(=O)c1ccc2c(c1)C(=O)C(=O)c1ccccc1-2)C(=O)NCC(=O)O [Example 55] (Phenanthrenequinone2carbonyl-GRPRG-OH) | 1400 | 4700 | > 30000 |  |  |
| N=C(N)NCCC[C@H](NC(=O)[C@@H]1CCCN1C(=O)[C@H](CCCNC(=N)N)NC(=O)[C@H](CCC(=O)O)NC(=O)c1ccc2c(c1)C(=O)C(=O)c1ccccc1-2)C(=O)NCC(=O)O [Example 56] (Phenanthrenequinone2carbonyl-ERPRG-OH) | 800 | 2300 | > 30000 |  |  |
| N=C(N)NCCC[C@H](NC(=O)c1ccc2c(c1)C(=O)C(=O)c1ccccc1-2)C(=O)N[C@@H](CCCNC(=N)N)C(=O)N1CCC[C@H]1C(=O)N[C@@H](CCCNC(=N)N)C(=O)NCC(=O)O [Example 57] (Phenanthrenequinone2carbonyl-RRPRG-OH) | 1300 | 3200 | > 30000 |  |  |
